# Measured values as given in article PMC3741113, “De-Novo Design of Antimicrobial Peptides for Plant Protection” (PLoS ONE, 2013).
# Ends that are not written are not given here.
# Assays:
# [1] = tested on: Pectobacterium carotovorum ssp. carotovorum; details: Table 4, incubation period 1d; LB-medium, 27°C
# [2] = tested on: Clavibacter michiganensis ssp. michiganensis; details: Table 4, incubation period 2d; LB-medium, 27°C
# Xanthomonas vesicatoria = details: Table 4, incubation period 2d; LB-medium, 27°C
# [3] = tested on: Pseudomonas syringae pv. syringae; details: Table 4, incubation period 1d; LB-medium, 27°C
# [4] = tested on: Pseudomonas syringae pv. tomato; details: Table 4, incubation period 1d; LB-medium, 27°C
# Pseudomonas corrugata = details: Table 4, incubation period 2d; LB-medium, 27°C
substance,measurement,setting,value
RKKRVKLLKRLV-NH2 [SP1-2],MIC,[1],>10 µg/mL
same,MIC,[2],10 µg/mL
same,MIC,Xanthomonas vesicatoria,5.0 µg/mL
same,MIC,[3],2.5 µg/mL
same,MIC,[4],5.0 µg/mL
same,MIC,Pseudomonas corrugata,0.5 µg/mL
KRRKLIKILKLIIKLIRKKR-NH2 [SP13-6],MIC,[1],>10 µg/mL
same,MIC,[2],0.1 µg/mL
same,MIC,Xanthomonas vesicatoria,0.1 µg/mL
same,MIC,[3],1.0 µg/mL
same,MIC,[4],2.5 µg/mL
same,MIC,Pseudomonas corrugata,2.5 µg/mL
KKKKKKIIKKII-NH2 [SP1-22],MIC,[1],>10 µg/mL
same,MIC,[2],>10 µg/mL
same,MIC,Xanthomonas vesicatoria,>10 µg/mL
same,MIC,[3],2.5 µg/mL
same,MIC,[4],1.0 µg/mL
same,MIC,Pseudomonas corrugata,>10 µg/mL
KRRKAIKILKLIAKLIRKKR-NH2 [SP13-8],MIC,[1],>10 µg/mL
same,MIC,[2],0.1 µg/mL
same,MIC,Xanthomonas vesicatoria,0.1 µg/mL
same,MIC,[3],>10 µg/mL
same,MIC,[4],10 µg/mL
same,MIC,Pseudomonas corrugata,0.25 µg/mL
KRRKLIKILKLIAKLIRKKR-NH2 [SP13-7],MIC,[1],>10 µg/mL
same,MIC,[2],0.25 µg/mL
same,MIC,Xanthomonas vesicatoria,0.1 µg/mL
same,MIC,[3],>10 µg/mL
same,MIC,[4],10 µg/mL
same,MIC,Pseudomonas corrugata,0.5 µg/mL
LRFLKKILKKLF-NH2 [SP10-1],MIC,[1],2.5 µg/mL
same,MIC,[2],1.0 µg/mL
same,MIC,Xanthomonas vesicatoria,2.5 µg/mL
same,MIC,[3],2.5 µg/mL
same,MIC,[4],1.0 µg/mL
same,MIC,Pseudomonas corrugata,2.5 µg/mL
LRIIRRILRRLI-NH2 [SP10-6],MIC,[1],2.5 µg/mL
same,MIC,[2],2.5 µg/mL
same,MIC,Xanthomonas vesicatoria,1.0 µg/mL
same,MIC,[3],2.5 µg/mL
same,MIC,[4],1.0 µg/mL
same,MIC,Pseudomonas corrugata,2.5 µg/mL
RKKRLRVVRRLV-NH2 [SP1-5],MIC,[1],>10 µg/mL
same,MIC,[2],>10 µg/mL
same,MIC,Xanthomonas vesicatoria,>10 µg/mL
same,MIC,[3],>10 µg/mL
same,MIC,[4],1.0 µg/mL
same,MIC,Pseudomonas corrugata,5.0 µg/mL
RKKKVKLLKRLV-NH2 [SP1-3],MIC,[1],>10 µg/mL
same,MIC,[2],>10 µg/mL
same,MIC,Xanthomonas vesicatoria,>10 µg/mL
same,MIC,[3],0.25 µg/mL
same,MIC,[4],5.0 µg/mL
same,MIC,Pseudomonas corrugata,2.5 µg/mL
RKKKKKIIKKLI-NH2 [SP1-21],MIC,[1],>10 µg/mL
same,MIC,[2],>10 µg/mL
same,MIC,Xanthomonas vesicatoria,>10 µg/mL
same,MIC,[3],0.5 µg/mL
same,MIC,[4],2.5 µg/mL
same,MIC,Pseudomonas corrugata,2.5 µg/mL
LRKAKKIAKKLF-NH2 [SP10-11],MIC,[1],>10 µg/mL
same,MIC,[2],5.0 µg/mL
same,MIC,Xanthomonas vesicatoria,0.5 µg/mL
same,MIC,[3],0.1 µg/mL
same,MIC,[4],0.5 µg/mL
same,MIC,Pseudomonas corrugata,0.5 µg/mL
KRRLILRILRLAIRILVKKR-NH2 [SP13-3],MIC,[1],>10 µg/mL
same,MIC,[2],2.5 µg/mL
same,MIC,Xanthomonas vesicatoria,2.5 µg/mL
same,MIC,[3],>10 µg/mL
same,MIC,[4],10 µg/mL
same,MIC,Pseudomonas corrugata,>10 µg/mL
KRRKLAFRLFRLFLKLVLKK-NH2 [SP13-14],MIC,[1],>10 µg/mL
same,MIC,[2],0.5 µg/mL
same,MIC,Xanthomonas vesicatoria,0.25 µg/mL
same,MIC,[3],5.0 µg/mL
same,MIC,[4],2.5 µg/mL
same,MIC,Pseudomonas corrugata,2.5 µg/mL
RKKKLKIIKRLI-NH2 [SP1-7],MIC,[1],>10 µg/mL
same,MIC,[2],2.5 µg/mL
same,MIC,Xanthomonas vesicatoria,1.0 µg/mL
same,MIC,[3],0.1 µg/mL
same,MIC,Pseudomonas corrugata,0.5 µg/mL
KRRLILRILRLAIRALVKKR-NH2 [SP13-2],MIC,[1],>10 µg/mL
same,MIC,[2],0.25 µg/mL
same,MIC,Xanthomonas vesicatoria,0.25 µg/mL
same,MIC,[3],5.0 µg/mL
same,MIC,[4],10 µg/mL
same,MIC,Pseudomonas corrugata,5.0 µg/mL
KKKKIIKRLI-NH2 [SP1-17],MIC,[1],>10 µg/mL
same,MIC,[2],>10 µg/mL
same,MIC,Xanthomonas vesicatoria,>10 µg/mL
same,MIC,[3],<0.1 µg/mL
same,MIC,[4],1.0 µg/mL
same,MIC,Pseudomonas corrugata,5.0 µg/mL
KRRILIRILKLIIKLILKKR-NH2 [SP13-5],MIC,[1],>10 µg/mL
same,MIC,[2],2.5 µg/mL
same,MIC,Xanthomonas vesicatoria,1.0 µg/mL
same,MIC,[3],>10 µg/mL
same,MIC,[4],2.5 µg/mL
same,MIC,Pseudomonas corrugata,10 µg/mL
KRRLIFRILKLFFRFLVKKR-NH2 [SP13-4],MIC,[1],>10 µg/mL
same,MIC,[2],1.0 µg/mL
same,MIC,Xanthomonas vesicatoria,2.5 µg/mL
same,MIC,[3],10 µg/mL
same,MIC,[4],>10 µg/mL
same,MIC,Pseudomonas corrugata,5.0 µg/mL
LRFIKKILKKLI-NH2 [SP10-4],MIC,[1],2.5 µg/mL
same,MIC,[2],0.25 µg/mL
same,MIC,Xanthomonas vesicatoria,0.1 µg/mL
same,MIC,[3],0.25 µg/mL
same,MIC,[4],1.0 µg/mL
same,MIC,Pseudomonas corrugata,2.5 µg/mL
RKKRLKVVKRLV-NH2 [SP1-4],MIC,[1],>10 µg/mL
same,MIC,[2],>10 µg/mL
same,MIC,Xanthomonas vesicatoria,>10 µg/mL
same,MIC,[3],5.0 µg/mL
same,MIC,[4],2.5 µg/mL
same,MIC,Pseudomonas corrugata,>10 µg/mL
KRRKLAFRAFRFALKAVLKK-NH2 [SP13-13],MIC,[1],>10 µg/mL
same,MIC,[2],0.5 µg/mL
same,MIC,Xanthomonas vesicatoria,0.25 µg/mL
same,MIC,[3],0.5 µg/mL
same,MIC,[4],2.5 µg/mL
same,MIC,Pseudomonas corrugata,0.25 µg/mL
KRKKLLKRLI-NH2 [SP1-16],MIC,[1],>10 µg/mL
same,MIC,[2],>10 µg/mL
same,MIC,Xanthomonas vesicatoria,10 µg/mL
same,MIC,[3],0.1 µg/mL
same,MIC,[4],1.0 µg/mL
same,MIC,Pseudomonas corrugata,0.5 µg/mL
RKKKFKFFKRFF-NH2 [SP1-13],MIC,[1],>10 µg/mL
same,MIC,[2],0.25 µg/mL
same,MIC,Xanthomonas vesicatoria,0.5 µg/mL
same,MIC,[3],0.1 µg/mL
same,MIC,[4],2.5 µg/mL
same,MIC,Pseudomonas corrugata,<0.1 µg/mL
RKKKLKFFKRLF-NH2 [SP1-11],MIC,[1],>10 µg/mL
same,MIC,[2],2.5 µg/mL
same,MIC,Xanthomonas vesicatoria,2.5 µg/mL
same,MIC,[3],1.0 µg/mL
same,MIC,[4],>10 µg/mL
same,MIC,Pseudomonas corrugata,0.25 µg/mL
KRRLIARILRLAIRALVKKR-NH2 [SP13-1],MIC,[1],>10 µg/mL
same,MIC,[2],0.5 µg/mL
same,MIC,Xanthomonas vesicatoria,0.5 µg/mL
same,MIC,[3],1.0 µg/mL
same,MIC,[4],1.0 µg/mL
same,MIC,Pseudomonas corrugata,2.5 µg/mL
KRKKLLKRLL-NH2 [SP1-15],MIC,[1],>10 µg/mL
same,MIC,[2],5.0 µg/mL
same,MIC,Xanthomonas vesicatoria,5.0 µg/mL
same,MIC,[3],0.1 µg/mL
same,MIC,[4],1.0 µg/mL
same,MIC,Pseudomonas corrugata,<0.1 µg/mL
RKKRKKLLKRLL-NH2 [SP1-18],MIC,[1],>10 µg/mL
same,MIC,[2],5.0 µg/mL
same,MIC,Xanthomonas vesicatoria,5.0 µg/mL
same,MIC,[3],0.1 µg/mL
same,MIC,[4],1.0 µg/mL
same,MIC,Pseudomonas corrugata,0.25 µg/mL
LRFAKKALKKLF-NH2 [SP10-3],MIC,[1],>10 µg/mL
same,MIC,[2],2.5 µg/mL
same,MIC,Xanthomonas vesicatoria,2.5 µg/mL
same,MIC,[3],0.25 µg/mL
same,MIC,[4],0.25 µg/mL
same,MIC,Pseudomonas corrugata,1.0 µg/mL
LRFARRALRRLF-NH2 [SP10-9],MIC,[1],2.5 µg/mL
same,MIC,[2],1.0 µg/mL
same,MIC,Xanthomonas vesicatoria,1.0 µg/mL
same,MIC,[3],0.25 µg/mL
same,MIC,[4],0.25 µg/mL
same,MIC,Pseudomonas corrugata,0.5 µg/mL
RKKRKKLIKRLI-NH2 [SP1-19],MIC,[1],>10 µg/mL
same,MIC,[2],5.0 µg/mL
same,MIC,Xanthomonas vesicatoria,5.0 µg/mL
same,MIC,[3],<0.1 µg/mL
same,MIC,[4],>10 µg/mL
same,MIC,Pseudomonas corrugata,0.5 µg/mL
LRFLRRILRRLL-NH2 [SP10-8],MIC,[1],2.5 µg/mL
same,MIC,[2],0.5 µg/mL
same,MIC,Xanthomonas vesicatoria,0.5 µg/mL
same,MIC,[3],0.5 µg/mL
same,MIC,[4],1.0 µg/mL
same,MIC,Pseudomonas corrugata,0.5 µg/mL
LRILRRLLRRLF-NH2 [SP10-7],MIC,[1],>10 µg/mL
same,MIC,[2],5.0 µg/mL
same,MIC,Xanthomonas vesicatoria,5.0 µg/mL
same,MIC,[3],>10 µg/mL
same,MIC,[4],1.0 µg/mL
same,MIC,Pseudomonas corrugata,2.5 µg/mL
KRRLFLFRLFRLFLRLFLKK-NH2 [SP13-12],MIC,[1],>10 µg/mL
same,MIC,[2],2.5 µg/mL
same,MIC,Xanthomonas vesicatoria,2.5 µg/mL
same,MIC,[3],>10 µg/mL
same,MIC,[4],5.0 µg/mL
same,MIC,Pseudomonas corrugata,10 µg/mL
RKKRKKLLKRLI-NH2 [SP1-20],MIC,[1],>10 µg/mL
same,MIC,[2],5.0 µg/mL
same,MIC,Xanthomonas vesicatoria,10 µg/mL
same,MIC,[3],0.25 µg/mL
same,MIC,[4],10 µg/mL
same,MIC,Pseudomonas corrugata,0.5 µg/mL
RKKKIKIIKRLI-NH2 [SP1-8],MIC,[1],>10 µg/mL
same,MIC,[2],5.0 µg/mL
same,MIC,Xanthomonas vesicatoria,2.5 µg/mL
same,MIC,[3],0.25 µg/mL
same,MIC,Pseudomonas corrugata,2.5 µg/mL
RKKKLKVVKRLV-NH2 [SP1-6],MIC,[1],>10 µg/mL
same,MIC,[2],10 µg/mL
same,MIC,Xanthomonas vesicatoria,>10 µg/mL
same,MIC,[3],5.0 µg/mL
same,MIC,[4],1.0 µg/mL
same,MIC,Pseudomonas corrugata,>10 µg/mL
RKKKFKFFKRLF-NH2 [SP1-12],MIC,[1],>10 µg/mL
same,MIC,[2],0.5 µg/mL
same,MIC,Xanthomonas vesicatoria,0.5 µg/mL
same,MIC,[3],0.1 µg/mL
same,MIC,[4],>10 µg/mL
same,MIC,Pseudomonas corrugata,0.25 µg/mL
RKKKFKIFKRLF-NH2 [SP1-14],MIC,[1],>10 µg/mL
same,MIC,[2],1.0 µg/mL
same,MIC,Xanthomonas vesicatoria,1.0 µg/mL
same,MIC,[3],<0.1 µg/mL
same,MIC,[4],1.0 µg/mL
same,MIC,Pseudomonas corrugata,0.5 µg/mL
RKKKAKIIKKII-NH2 [SP1-10],MIC,[1],>10 µg/mL
same,MIC,[2],>10 µg/mL
same,MIC,Xanthomonas vesicatoria,>10 µg/mL
same,MIC,[3],1.0 µg/mL
same,MIC,[4],>10 µg/mL
same,MIC,Pseudomonas corrugata,10 µg/mL
RKKKIKIIKKII-NH2 [SP1-9],MIC,[1],>10 µg/mL
same,MIC,[2],2.5 µg/mL
same,MIC,Xanthomonas vesicatoria,2.5 µg/mL
same,MIC,[3],0.5 µg/mL
same,MIC,[4],5.0 µg/mL
same,MIC,Pseudomonas corrugata,5.0 µg/mL
KRRLALFRLFRLALKLVLKK-NH2 [SP13-11],MIC,[1],>10 µg/mL
same,MIC,[2],2.5 µg/mL
same,MIC,Xanthomonas vesicatoria,2.5 µg/mL
same,MIC,[3],>10 µg/mL
same,MIC,[4],2.5 µg/mL
same,MIC,Pseudomonas corrugata,>10 µg/mL
KRRLALFRAFRLALKSVLKK-NH2 [SP13-10],MIC,[1],>10 µg/mL
same,MIC,[2],0.1 µg/mL
same,MIC,Xanthomonas vesicatoria,0.1 µg/mL
same,MIC,[3],>10 µg/mL
same,MIC,[4],1.0 µg/mL
same,MIC,Pseudomonas corrugata,0.25 µg/mL
KRRKAIKILKLIAKAIRKKR-NH2 [SP13-9],MIC,[1],>10 µg/mL
same,MIC,[2],0.25 µg/mL
same,MIC,Xanthomonas vesicatoria,0.1 µg/mL
same,MIC,[3],>10 µg/mL
same,MIC,[4],>10 µg/mL
same,MIC,Pseudomonas corrugata,0.25 µg/mL
